The nature of assay [1]: polyadenylation inhibitors in yeast reporter, dose response, luminescence, S. cerevisiae SKY197-pL101 (AID 2525). The format is functional, cell-based.
A short description of assay [2]: S. cerevisiae growth inhibition, dose response, counter-screen for polyadenylation inhibitor project, Alamar Blue fluorescence, MIC (AID 2693). It counts as functional. The note with it: Saccharomyces cerevisiae. On the technique in general: Counterscreens check selectivity or assay interference.
For the next assay, the target named is Large T antigen (Simian virus 40, UniProt P03070). It counts as functional, Betapolyomavirus macacae.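 Also: Confirmatory-stage PubChem screen for compounds that inhibit SV40 T antigen.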
Assay [3] in a line: Luminescence Cell-Based Dose Confirmation HTS to Identify Inhibitors of Polyadenylation. The format is functional.
The target in assay [4] is T1, Cytochrome P450 2D6 (Homo sapiens, UniProt P10635). In words: qHTS Assay for Inhibitors and Substrates of Cytochrome P450 2D6. [Related pubchem assays: 410 ]. It counts as ADME. Particulars: read-out: Potency. In general terms: qHTS replaces the single test concentration by a dilution series.
The next assay has as its target Cytochrome P450 2C19 (Homo sapiens, UniProt P33261). As to the kind of experiment: Cytochrome panel assay with activity outcomes. Panel member name: p450-cyp2c19 Compounds with AC50 equal or less than 10 uM are considered active. The note with it: read-out: AC50. It counts as functional.
Assay [5] addresses T1, Cytochrome P450 2D6.
Assay [6] has as its target Voltage-gated inwardly rectifying potassium channel KCNH2 (Homo sapiens, UniProt Q12809). Particulars: Potency.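 Also: confirmatory quantitative high-throughput screen measuring inhibition of hERG channel activity.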
Assay [7] addresses Serine/threonine-protein phosphatase PP1-alpha catalytic subunit (Homo sapiens, UniProt P62136). As to the kind of experiment: PP1 phosphatase inhibitors, dose response, biochemical, fluorescence (AID 2403).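 Also: phosphatase turnover of OMFP into fluorescent 3-O-methylfluorescein.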
In assay [8] the target is Serine/threonine-protein phosphatase (Homo sapiens, UniProt Q9BPW0). In words: Counterscreen for inhibitors of PP1: fluorescence-based biochemical high throughput dose response assay to identify inhibitors of Protein Phosphatase 5 (PP5). [Related pubchem assays: 2034 (Summary (PP5 inhibitors)), 1987 (PP5 inhibitors in singlate), 2235 (PP1 inhibitors in singlate)].
A short description of assay [9]: A cytotoxicity screen of small molecule inhibitors of the PhoP region in Salmonella typhi identified in the primary screen. [Related pubchem assays: 1850, 1864, 1985 ]. It counts as functional.
For another assay, the system named is INS1. As to the kind of experiment: beta cell apoptosis inhibitors, cytokine rescue, dose response, luminescence, retest (AID 449756).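 Also: cell death triggered by IL-1 beta plus TNF-alpha plus IFN-gamma mixture; protective hits raise ATP signal compared with cytokine alone wells.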 The format is functional, cell-based. Particulars: Rattus norvegicus.
Assay [10] is described as follows: enhancers of respiration in Yfh1-depleted yeast, dose response, Friedreich's ataxia, plus single-dose screen (AID 1465).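 Also: yeast depleted of Yfh1p frataxin homolog grown on glycerol needing respiration; WST-1 tetrazolium dye reduction as measure of cellular dehydrogenase metabolic activity.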 It counts as functional.
Assay [11] addresses T2, Alkaline phosphatase, tissue-nonspecific isozyme (Homo sapiens, UniProt P05186).
T2 sequence (P05186 whole entry): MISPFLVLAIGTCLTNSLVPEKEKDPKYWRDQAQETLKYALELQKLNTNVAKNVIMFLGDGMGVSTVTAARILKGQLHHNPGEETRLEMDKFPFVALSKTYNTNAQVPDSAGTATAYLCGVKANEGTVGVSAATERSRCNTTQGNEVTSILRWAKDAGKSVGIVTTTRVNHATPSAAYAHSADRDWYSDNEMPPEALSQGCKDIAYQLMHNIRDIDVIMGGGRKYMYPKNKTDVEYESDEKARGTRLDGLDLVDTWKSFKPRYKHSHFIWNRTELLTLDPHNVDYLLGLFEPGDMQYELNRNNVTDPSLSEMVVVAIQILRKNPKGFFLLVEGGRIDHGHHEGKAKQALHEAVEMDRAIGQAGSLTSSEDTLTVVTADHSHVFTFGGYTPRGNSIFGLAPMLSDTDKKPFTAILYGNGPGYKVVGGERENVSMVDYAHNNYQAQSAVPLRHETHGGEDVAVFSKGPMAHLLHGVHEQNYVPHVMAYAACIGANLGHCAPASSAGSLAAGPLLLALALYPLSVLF

Assay [12] is described as follows: cytotoxicity in HEK-293T cells, dose response, cytotoxicity control for TCR NF-kB inhibitor project, luminescence, T-cell screen hits (AID 489026).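 Also: cells exposed to compound about 14 hours before the viability readout.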 It counts as functional, cell-based.
Assay [13] relates to Streptococcus sp. 'group A'. In words: growth inhibition of control SK(-) GAS strain, dose response, counter-screen for streptokinase expression inhibitor project, luminescence, kanamycin, BacTiterGlo, confirmation (AID 1900). It counts as functional, organism-based.
Assay [14] in a line: cytotoxicity in HPDE-C7 cells, cell-based, fluorescence, HTS (AID 430). It counts as functional. The note with it: Homo sapiens.
Assay [15] can be described thus: microbe, parasite or virus in culture. It counts as functional. The note with it: Mycobacterium tuberculosis.
Assay [16] is described as follows: cytotoxicity in KRAS-transformed pancreatic duct cells, primary screen, cell-based, fluorescence, HTS (AID 431). The format is functional. Particulars: Homo sapiens.
The nature of assay [17]: growth suppression of PTEN-null colon cells, dose response, cell-based, HCT116 PTEN knockout (AID 1047).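 Also: HCT116 colon tumor cells with PTEN knocked out; cells exposed to compound for 60 hours before readout; potency for loss of cell viability measured by luminescence.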 The format is functional.
Assay [18] in a line: growth suppression of beta-catenin-knockout colon cells, dose response, cell-based, HCT116, human colon tumor (AID 1045).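 Also: HCT116 colon tumor cells with beta catenin knocked out; cells exposed to compound for 60 hours.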 It counts as functional.
Assay [19] addresses T3, Sphingosine 1-phosphate receptor 4 (Homo sapiens, UniProt O95977).
T3 sequence (O95977 whole entry): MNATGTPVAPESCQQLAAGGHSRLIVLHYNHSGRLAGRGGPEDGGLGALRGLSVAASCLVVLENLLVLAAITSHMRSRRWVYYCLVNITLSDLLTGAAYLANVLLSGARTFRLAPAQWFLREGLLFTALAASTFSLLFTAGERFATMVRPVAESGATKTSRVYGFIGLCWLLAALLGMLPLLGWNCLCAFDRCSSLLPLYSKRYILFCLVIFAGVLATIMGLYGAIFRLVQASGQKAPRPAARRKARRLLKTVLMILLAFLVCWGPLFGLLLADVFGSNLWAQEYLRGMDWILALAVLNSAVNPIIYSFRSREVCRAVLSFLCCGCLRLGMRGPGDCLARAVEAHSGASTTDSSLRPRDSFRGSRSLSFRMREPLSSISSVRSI
As to the kind of experiment: Fluorescence dose response cell-based high throughput screening assay for antagonists of the Sphingosine 1-Phosphate Receptor 4 (S1P4). [Related pubchem assays: 1524 (Confirmation in triplicates.), 1510 (Primary screen.)]. It counts as functional.

Assay [20] has as its target Sphingosine 1-phosphate receptor 1 (Homo sapiens, UniProt P21453). The format is functional.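 Also: Tango beta-arrestin reporter U2OS cells stimulated with S1P near its EC80; inhibitor potency meaning antagonism of receptor activation by the natural agonist.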
The next assay relates to Streptococcus. In words: Group A Streptococcus viability loss, dose response, counter-screen for streptokinase expression inhibitor project, luminescence, BacTiterGlo (AID 1915).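 Also: potency for reduction of bacterial viability or growth.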 It counts as functional, organism-based.
Assay [21] in a line: THP-1 cell cytotoxicity, dose response, cytotoxicity control for non-replicating M. tuberculosis project (AID 489025). It counts as functional.
Assay [22] can be described thus: HepG2 cell cytotoxicity, dose response, cytotoxicity control for non-replicating M. tuberculosis project (AID 489018). It counts as functional. Particulars: Mycobacterium tuberculosis.
A short description of assay [23]: Vero E6 cell cytotoxicity, dose response, cytotoxicity control for non-replicating M. tuberculosis project, secondary assay (AID 492998). The format is functional, VeroE6. Particulars: Vero C1008.
The target in assay [24] is T4, Heat shock factor protein 1 (Mus musculus, UniProt P38532).
T4 sequence (P38532 whole entry): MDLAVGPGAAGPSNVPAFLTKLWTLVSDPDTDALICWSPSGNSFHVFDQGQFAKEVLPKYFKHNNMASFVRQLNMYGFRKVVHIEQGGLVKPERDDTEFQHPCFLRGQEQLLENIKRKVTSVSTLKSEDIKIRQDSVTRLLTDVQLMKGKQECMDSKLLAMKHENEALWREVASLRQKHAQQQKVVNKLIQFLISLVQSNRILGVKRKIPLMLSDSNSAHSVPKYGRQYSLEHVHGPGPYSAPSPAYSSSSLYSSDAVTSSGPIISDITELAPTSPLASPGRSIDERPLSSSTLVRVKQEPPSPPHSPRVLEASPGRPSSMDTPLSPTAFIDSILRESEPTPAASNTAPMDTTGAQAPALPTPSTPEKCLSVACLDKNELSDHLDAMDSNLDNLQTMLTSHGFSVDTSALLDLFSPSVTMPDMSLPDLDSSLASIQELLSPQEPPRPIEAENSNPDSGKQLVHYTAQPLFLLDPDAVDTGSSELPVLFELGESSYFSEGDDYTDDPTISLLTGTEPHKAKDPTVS
As to the kind of experiment: HSF1 potentiators in luciferase reporter cells, confirmation, cell-based, NIH3T3, luminescence, dose retest (AID 435004).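 Also: stress induced by proteasome inhibitor MG132 added 30 min after compound; luciferase reporter driven by HSF1 response element in NIH3T3 cells; actives raise luminescence as potentiators of the MG132 stress response.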 It counts as functional. A general note: In a reporter assay the amount or activity of a reporter protein is the signal.

A further assay is described as follows: cells. The format is functional.
Assay [25] in a line: Shn3 3'UTR reporter inhibitors, dose response, cell-based, Clone20 osteoblasts, firefly luciferase, cherry-picked (AID 624132).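 Also: firefly luciferase luminescence from reporter carrying the Shn3 3'UTR in osteoblasts.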 The format is functional.
A short description of assay [26]: HepG2 cell cytotoxicity, dose response, cytotoxicity control for Shn3 inhibitor project, CellTiter-Glo, cherry-picked (AID 624134). The format is functional, cell-based.
A further assay addresses Vasopressin V1a receptor (Homo sapiens, UniProt P37288). In words: Counterscreen for Oxytocin Receptor (OXTR) agonists: Fluorescence-based cell-based high throughput dose response assay to identify agonists of the vasopressin 1 receptor (V1R). [Related pubchem assays: 2435 (Primary screen (OXTR agonists in singlicate)), 434991 (Counterscreen (V1R agonists in triplicate)), 2482 (Summary (OXTR agonists)) …. The format is functional.

For another assay, the target named is Oxytocin receptor (Homo sapiens, UniProt P30559). As to the kind of experiment: Fluorescence-based cell-based high throughput dose response assay for agonists of the Oxytocin Receptor (OXTR). [Related pubchem assays: 2435 (Primary screen (OXTR agonists in singlicate)), 434991 (Counterscreen (V1R agonists in triplicate)), 2482 (Summary (OXTR agonists)), 434963 (Confirmation screen (OXTR agonists in triplicate))]. The format is functional.

The target in assay [27] is T5, Eukaryotic translation initiation factor 2-alpha kinase 3 (Homo sapiens, UniProt Q9NZJ5). As to the kind of experiment: Dose response cell-based high-throughput screening assay to measure PERK inhibition. [Related pubchem assays: 1416 ]. It counts as functional.
Assay [28] deals with T5, Eukaryotic translation initiation factor 2-alpha kinase 3. In words: Counterscreen assay for PERK inhibitors: Dose response cell-based high throughput screening assay to measure inhibition of PERK at 6 hours. [Related pubchem assays: 1522, 1416 ]. It counts as functional.

Calls of active or inactive are those of the source.

For orientation: EC50 means the concentration giving half of the maximal effect. What is called MIC is the least concentration at which growth counts as inhibited. Broadly, the IC50 is the concentration that inhibits the measured activity by half.

T1 sequence (P10635 whole entry): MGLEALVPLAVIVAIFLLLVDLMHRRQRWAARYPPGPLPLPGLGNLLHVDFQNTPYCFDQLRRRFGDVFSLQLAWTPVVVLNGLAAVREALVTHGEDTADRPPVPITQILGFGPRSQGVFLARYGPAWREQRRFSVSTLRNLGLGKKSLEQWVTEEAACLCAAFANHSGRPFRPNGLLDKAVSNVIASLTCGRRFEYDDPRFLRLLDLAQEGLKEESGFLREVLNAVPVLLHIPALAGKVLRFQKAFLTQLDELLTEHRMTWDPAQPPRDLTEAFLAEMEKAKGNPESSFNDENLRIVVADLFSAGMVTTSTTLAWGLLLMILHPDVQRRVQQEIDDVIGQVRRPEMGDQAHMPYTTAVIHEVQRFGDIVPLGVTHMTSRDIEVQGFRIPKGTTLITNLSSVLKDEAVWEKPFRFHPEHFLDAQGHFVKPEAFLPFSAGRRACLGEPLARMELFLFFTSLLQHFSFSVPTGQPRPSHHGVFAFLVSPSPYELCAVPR
T5 sequence (Q9NZJ5 whole entry): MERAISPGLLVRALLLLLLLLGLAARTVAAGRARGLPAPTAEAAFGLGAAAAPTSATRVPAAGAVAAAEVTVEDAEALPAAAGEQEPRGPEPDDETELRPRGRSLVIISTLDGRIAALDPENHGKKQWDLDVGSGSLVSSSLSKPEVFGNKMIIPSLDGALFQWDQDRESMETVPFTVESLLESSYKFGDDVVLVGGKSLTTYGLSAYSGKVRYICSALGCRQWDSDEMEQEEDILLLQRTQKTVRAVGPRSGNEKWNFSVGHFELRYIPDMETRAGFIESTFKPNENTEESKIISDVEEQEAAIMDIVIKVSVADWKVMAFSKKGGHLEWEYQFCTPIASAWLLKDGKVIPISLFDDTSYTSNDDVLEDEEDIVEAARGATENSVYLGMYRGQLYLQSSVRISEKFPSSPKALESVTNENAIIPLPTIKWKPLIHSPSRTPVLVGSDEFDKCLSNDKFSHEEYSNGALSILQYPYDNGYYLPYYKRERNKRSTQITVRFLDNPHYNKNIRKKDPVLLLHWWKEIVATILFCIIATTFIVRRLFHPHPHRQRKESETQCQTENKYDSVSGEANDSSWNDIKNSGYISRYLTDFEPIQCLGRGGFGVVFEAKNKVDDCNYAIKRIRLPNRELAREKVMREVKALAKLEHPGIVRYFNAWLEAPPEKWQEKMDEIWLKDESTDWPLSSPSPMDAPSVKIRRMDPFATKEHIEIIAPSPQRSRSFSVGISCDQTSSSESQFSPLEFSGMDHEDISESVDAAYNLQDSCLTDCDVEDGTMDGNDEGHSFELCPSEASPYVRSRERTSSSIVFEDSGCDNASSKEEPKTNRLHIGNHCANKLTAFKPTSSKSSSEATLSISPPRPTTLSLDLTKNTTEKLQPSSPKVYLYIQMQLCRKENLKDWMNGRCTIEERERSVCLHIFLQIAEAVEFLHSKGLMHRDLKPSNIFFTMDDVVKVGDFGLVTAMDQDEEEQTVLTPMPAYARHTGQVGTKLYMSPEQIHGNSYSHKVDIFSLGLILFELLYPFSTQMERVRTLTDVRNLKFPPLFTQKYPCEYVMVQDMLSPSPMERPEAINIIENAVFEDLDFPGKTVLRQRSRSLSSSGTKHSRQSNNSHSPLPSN
Chain of Sphingosine 1-phosphate receptor 1 (P21453 whole entry): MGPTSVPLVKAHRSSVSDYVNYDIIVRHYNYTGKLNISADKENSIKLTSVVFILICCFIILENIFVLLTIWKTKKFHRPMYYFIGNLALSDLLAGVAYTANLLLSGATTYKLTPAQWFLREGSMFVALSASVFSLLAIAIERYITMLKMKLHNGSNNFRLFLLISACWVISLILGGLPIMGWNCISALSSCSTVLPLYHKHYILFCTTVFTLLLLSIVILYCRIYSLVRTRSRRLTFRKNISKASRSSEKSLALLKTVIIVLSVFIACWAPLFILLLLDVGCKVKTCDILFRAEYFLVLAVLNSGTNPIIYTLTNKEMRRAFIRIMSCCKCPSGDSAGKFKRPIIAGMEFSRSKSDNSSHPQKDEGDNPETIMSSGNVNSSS
Chain of Cytochrome P450 2C19 (P33261 whole entry): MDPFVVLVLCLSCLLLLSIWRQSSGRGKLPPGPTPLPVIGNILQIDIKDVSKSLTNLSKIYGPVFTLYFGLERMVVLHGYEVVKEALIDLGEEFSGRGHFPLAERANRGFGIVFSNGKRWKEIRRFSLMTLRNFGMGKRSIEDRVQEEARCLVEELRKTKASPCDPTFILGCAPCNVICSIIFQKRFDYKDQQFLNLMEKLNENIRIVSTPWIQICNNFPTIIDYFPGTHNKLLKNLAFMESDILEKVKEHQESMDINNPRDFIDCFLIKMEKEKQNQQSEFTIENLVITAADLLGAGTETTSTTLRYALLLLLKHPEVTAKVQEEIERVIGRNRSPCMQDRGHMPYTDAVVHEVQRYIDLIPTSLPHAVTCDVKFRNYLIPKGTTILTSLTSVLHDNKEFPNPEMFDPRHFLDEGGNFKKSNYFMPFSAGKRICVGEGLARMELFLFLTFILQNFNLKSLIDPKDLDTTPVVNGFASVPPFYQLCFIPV
Chain of Serine/threonine-protein phosphatase PP1-alpha catalytic subunit (P62136 whole entry): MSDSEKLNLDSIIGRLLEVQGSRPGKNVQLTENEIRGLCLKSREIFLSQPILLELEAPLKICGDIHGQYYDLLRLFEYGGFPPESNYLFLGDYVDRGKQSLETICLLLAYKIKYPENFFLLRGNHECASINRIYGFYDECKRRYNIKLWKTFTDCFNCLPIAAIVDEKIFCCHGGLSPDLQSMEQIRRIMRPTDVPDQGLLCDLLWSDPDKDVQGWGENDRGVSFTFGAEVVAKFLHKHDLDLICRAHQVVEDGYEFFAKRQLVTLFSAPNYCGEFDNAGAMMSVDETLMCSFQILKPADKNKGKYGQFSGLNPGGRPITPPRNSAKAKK
Chain of Vasopressin V1a receptor (P37288 whole entry): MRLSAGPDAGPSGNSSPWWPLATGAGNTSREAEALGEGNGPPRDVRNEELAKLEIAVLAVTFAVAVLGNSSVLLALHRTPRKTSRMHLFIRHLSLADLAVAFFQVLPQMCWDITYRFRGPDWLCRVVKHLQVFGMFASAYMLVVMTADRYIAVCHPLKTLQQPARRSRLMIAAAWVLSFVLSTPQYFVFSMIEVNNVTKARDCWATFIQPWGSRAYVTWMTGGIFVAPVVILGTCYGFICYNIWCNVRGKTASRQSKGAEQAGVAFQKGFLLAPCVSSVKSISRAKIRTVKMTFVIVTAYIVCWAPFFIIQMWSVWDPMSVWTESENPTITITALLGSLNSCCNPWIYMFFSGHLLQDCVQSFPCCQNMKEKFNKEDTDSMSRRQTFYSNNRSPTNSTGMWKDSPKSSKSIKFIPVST
Chain of Voltage-gated inwardly rectifying potassium channel KCNH2 (Q12809 whole entry): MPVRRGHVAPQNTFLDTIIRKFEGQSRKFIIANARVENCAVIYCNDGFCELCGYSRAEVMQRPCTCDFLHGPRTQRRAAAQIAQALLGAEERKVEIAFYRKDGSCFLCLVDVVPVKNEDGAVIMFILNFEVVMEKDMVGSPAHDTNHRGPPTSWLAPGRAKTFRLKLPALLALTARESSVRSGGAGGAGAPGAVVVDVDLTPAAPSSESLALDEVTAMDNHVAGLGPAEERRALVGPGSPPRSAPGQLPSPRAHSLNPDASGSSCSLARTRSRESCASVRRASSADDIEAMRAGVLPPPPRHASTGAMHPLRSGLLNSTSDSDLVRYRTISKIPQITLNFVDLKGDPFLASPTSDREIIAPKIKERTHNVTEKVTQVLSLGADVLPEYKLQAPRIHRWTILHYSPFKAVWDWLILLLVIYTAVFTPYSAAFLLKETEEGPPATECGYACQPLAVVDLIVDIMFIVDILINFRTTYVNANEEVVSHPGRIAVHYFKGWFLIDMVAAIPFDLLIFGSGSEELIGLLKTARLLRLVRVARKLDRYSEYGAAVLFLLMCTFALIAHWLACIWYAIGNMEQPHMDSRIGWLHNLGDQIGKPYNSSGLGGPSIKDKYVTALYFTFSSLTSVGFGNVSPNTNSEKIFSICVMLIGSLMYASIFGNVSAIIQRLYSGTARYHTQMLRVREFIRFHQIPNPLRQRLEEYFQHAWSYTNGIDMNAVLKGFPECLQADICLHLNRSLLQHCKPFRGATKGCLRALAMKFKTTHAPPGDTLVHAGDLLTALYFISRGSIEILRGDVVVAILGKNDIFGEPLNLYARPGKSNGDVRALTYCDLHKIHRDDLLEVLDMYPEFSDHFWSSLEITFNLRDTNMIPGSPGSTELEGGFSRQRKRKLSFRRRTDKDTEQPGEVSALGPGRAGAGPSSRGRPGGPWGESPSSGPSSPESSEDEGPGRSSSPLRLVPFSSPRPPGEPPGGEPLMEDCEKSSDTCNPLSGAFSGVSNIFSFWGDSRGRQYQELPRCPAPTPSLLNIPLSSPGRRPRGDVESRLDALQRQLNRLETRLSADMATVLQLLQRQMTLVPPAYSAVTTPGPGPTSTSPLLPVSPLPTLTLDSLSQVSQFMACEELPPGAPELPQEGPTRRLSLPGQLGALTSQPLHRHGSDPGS
Chain of Serine/threonine-protein phosphatase (Q9BPW0 whole entry): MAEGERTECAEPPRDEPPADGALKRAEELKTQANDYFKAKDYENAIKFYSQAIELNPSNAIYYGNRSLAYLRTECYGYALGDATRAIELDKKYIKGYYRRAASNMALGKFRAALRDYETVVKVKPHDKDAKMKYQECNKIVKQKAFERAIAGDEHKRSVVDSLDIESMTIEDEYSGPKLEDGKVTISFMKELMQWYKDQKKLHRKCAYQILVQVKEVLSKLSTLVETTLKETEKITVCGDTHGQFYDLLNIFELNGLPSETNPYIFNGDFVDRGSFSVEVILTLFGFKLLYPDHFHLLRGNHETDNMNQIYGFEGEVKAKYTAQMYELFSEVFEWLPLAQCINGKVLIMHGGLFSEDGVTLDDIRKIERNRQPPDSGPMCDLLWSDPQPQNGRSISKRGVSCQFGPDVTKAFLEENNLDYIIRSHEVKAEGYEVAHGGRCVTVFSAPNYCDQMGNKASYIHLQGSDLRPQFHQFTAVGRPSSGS

`COc1cc(/C=C2\SC(=S)N(NC(=O)c3cccnc3)C2=O)ccc1O`: the EC50 in assay [1] was 103 µM (active); in assay [3], 9.9 µM (active). Also, the MIC in assay [2] was > 37 µM (inconclusive). In addition, the IC50 at Large T antigen was 8.49 µM (active).

Turning to `O=C(CCc1ccc(O)cc1)c1c(O)cc(O)cc1O` [PHLORETIN], the AC50 at Cytochrome P450 2D6 [4] is 25.1 µM (inconclusive); at Cytochrome P450 2C19, 20 µM (inconclusive); on Cytochrome P450 2D6 [5], 39.8 µM (inconclusive); in assay [6], 12.6 µM (inconclusive).

Turning to `Cc1ccc(-n2nc(C(=O)O)cc2-c2ccc(Cl)cc2)cc1`, the IC50 in assay [7] is 9.65 µM (active); in assay [8] it was > 67 µM (not active).

On to `O=C(c1ccc2c(c1)nc(S)n1c3ccccc3nc21)N1CCN(c2cccc(Cl)c2)CC1`, for which the EC50 in [9] is > 50 µM (active). In the assay with INS1, the AC50 is 8.62 µM (active).

Regarding `CCOC(=O)/C(C#N)=C/C=C1/C=CC=CN1C`, the EC50 in assay [10] was > 100 µM (active).

Consider `CCOC(=O)c1ccc2nc(Nc3nc4ccc(F)cc4s3)sc2c1`, for which the EC50 in assay [11] is 33.6 µM (active). Further, the IC50 in assay [12] is > 80 µM (inactive).

With `Cc1ccc(S(=O)(=O)Nc2cccc3ncccc23)s1`, the EC50 is 1.78 µM (active) in assay [13]; 11.3 µM (active) in assay [14]; 10.3 µM (active) in [16]; 1.73 µM (active) in assay [17]; 1.46 µM (active) in assay [18]; 10.1 µM (active) with Streptococcus. Also, the half-maximal effective concentration (EC50) in [24] was 3.91 µM (active). The CC50 in assay [15] is 6.47 µM (active); in assay [21], 6.44 µM (active); in assay [22], 6.97 µM (active); in assay [23], 4.2 µM (active). Also, the IC50 in assay [19] is 0.611 µM (active); in assay [20], 1.19 µM (active); in the assay “cells”, 2.01 µM (active). For the same compound, the AC50 in assay [25] was 3.85 µM (active); in assay [26] it was 9.75 µM (active).

Consider `CC(Oc1ccc(F)cc1)C(=O)Nc1ccc(S(=O)(=O)NC2=NCCCCC2)cc1` (stereo not given), for which the 50% effective concentration (EC50) at Vasopressin V1a receptor and at Oxytocin receptor was > 29.9 µM (not active) throughout.

Regarding `COCCNC(=O)c1cnn2c(O)cc(C3CCN(C(=O)OC(C)(C)C)CC3)nc12`, the EC50 in [27] and in assay [28] was > 55.7 µM (not active) each time.
